Literature values, collected in US20070148194A1, “Novel nanoemulsion formulations” (priority 2005, published 2007).

System: HIV
Settings: in vitro; read-out: anti-HIV activity in vitro, IC50

## CC(C)(C)NC(=O)[C@@H]1C[C@@H]2CCCC[C@@H]2CN1C[C@@H](O)[C@H](Cc1ccccc1)NC(=O)[C@H](CC(N)=O)NC(=O)c1ccc2ccccc2n1 [SQV, Saquinavir]
  IC50: 20 nM
